Test results as given in US20110217713A1 (On-Q-ity, priority 2010, published 2011).

System: non-small cell lung cancer patient specimens (adenocarcinomas and squamous cell carcinoma)
Experiment: International Adjuvant Lung Trial (IALT): cisplatin-based therapy vs observation, DFS/OS against IHC DNA repair biomarker Q-scores (Cox PH models)
Assay type: in vivo, human
Method: An immunohistochemical evaluation of DNA Repair Proteins was conducted on a large international patient specimen collection from the IALT trial (International Adjuvant Lung Trial). This clinical trial originally comprised approximately 1867 non-small cell lung cancer patient specimens (adenocarcinomas and squamous cell carcinoma) and was designed to test clinical parameters for patients receiving either cisplatin-based therapy or those considered observation. One problem with testing of biomarkers in general from clinical trials is that the patient population treatments are generally a mixture of several different treatments and combinations of such and so results may be confounded by interactions of various treatments. However, the IALT trial represents pristine treatment arms of cisplatin and observation and thus is relatively free of confounding affects due to treatment variation.
International Adjuvant Lung Cancer Trial (IALT) NSCLC FFPE patient specimens constructed on TMAs (13 total) were stained by IHC for DNA repair biomarkers: ATM, MSH2, ERCC1, p53, pMK2, PARP1, BRCA1, XPF. An average of 603 patients were analyzed for each biomarker. Tumor biomarker nuclear or cytoplasmic levels were determined using digital image user defined macros. Scores were generated based on weighted intensity and quantity of stained cells. In reference to accompanying diagrams in the Powerpoint files, please note that a wide dynamic range achieved during assay development and optimization in commercially available TMAs is translationally achieved when patients comprising this study population are stained, annotated for tumor region and scored by user-defined macros.
Previous studies have utilized standard pathologist-based scoring, thus we chose to optimize the IHC-based assessment of biomarker levels using digital pathology and weighted scoring. This endeavor is undertaken so that for a given population a continuum of scores (herein referred to as Q-scores) with a broad dynamic range may be generated by user defined macros. Here, scoring of individual tumor cells comprising each patient specimen is generated and then patients assembled into a population continuum of scores against which finer cut-points may tested and established rather than crude binning methods as employed in previous studies.
Q-score=10*(% of 10+cells)+9*(% of 9+cells)+8*(% of 8+cells)+7*(% of 7+cells) . . . 1*(% of 1+cells)
Cox PH models adjusted for relevant clinical and stratification variables were used in the univariate analyses of Disease-Free Survival (DFS) and Overall Survival (OS). Initial analyses were conducted using biomarker Q scores as continuous variables against clinical endpoint metrics.

[1] = ATM model, ADENOCARCINOMA, With adjustment variables
[2] = ATM model, ADENOCARCINOMA, With selected variables
[3] = ATM model, ADENOCARCINOMA, Without variables
[4] = ATM model, SQUAMOUS CELLS, With adjustment variables
[5] = ATM model, SQUAMOUS CELLS, With selected variables
[6] = ATM model, SQUAMOUS CELLS, Without variables
[7] = BRCA1 model, ADENOCARCINOMA, With adjustment variables
[8] = BRCA1 model, ADENOCARCINOMA, With selected variables
[9] = BRCA1 model, ADENOCARCINOMA, Without variables
[10] = BRCA1 model, SQUAMOUS CELLS, With adjustment variables
[11] = BRCA1 model, SQUAMOUS CELLS, With selected variables
[12] = BRCA1 model, SQUAMOUS CELLS, Without variables
[13] = Cox PH model with PMK2MC, with adjustment variables, histology heading not shown
[14] = Disease Free Survival, MEAN Q SCORE OF PMK2 CYTOPLASM DIVIDED BY NUCLEAR, Adenocarcinoma, With selected variables
[15] = Disease Free Survival, MEAN Q SCORE OF PMK2 CYTOPLASM DIVIDED BY NUCLEAR, Adenocarcinoma, Without variables
[16] = Disease Free Survival, MEAN Q SCORE PMK2 CYTOPLASM, Adenocarcinoma, With adjustment variables
[17] = Disease Free Survival, MEAN Q SCORE PMK2 CYTOPLASM, Adenocarcinoma, With selected variables
[18] = Disease Free Survival, MEAN Q SCORE PMK2 CYTOPLASM, Adenocarcinoma, Without variables
[19] = Disease Free Survival, MEAN Q SCORE PMK2 CYTOPLASM, Squamous Cells, With adjustment variables
[20] = Disease Free Survival, MEAN Q SCORE PMK2 CYTOPLASM, Squamous Cells, With selected variables
[21] = Disease Free Survival, MEAN Q SCORE PMK2 CYTOPLASM, Squamous Cells, Without variables
[22] = Disease Free Survival, MEAN Q SCORE PMK2 NUCLEAR, Adenocarcinoma, With adjustment variables
[23] = Disease Free Survival, MEAN Q SCORE PMK2 NUCLEAR, Adenocarcinoma, With selected variables
[24] = Disease Free Survival, MEAN Q SCORE PMK2 NUCLEAR, Adenocarcinoma, Without variables
[25] = Disease Free Survival, MEAN Q SCORE PMK2 NUCLEAR, Squamous Cells, With adjustment variables
[26] = Disease Free Survival, MEAN Q SCORE PMK2 NUCLEAR, Squamous Cells, With selected variables
[27] = Disease Free Survival, MEAN Q SCORE PMK2 NUCLEAR, Squamous Cells, Without variables
[28] = Disease Free Survival, MEAN Q SCORE SUM OF PMK2 CYTOPLASM & NUCLEAR, Adenocarcinoma, With adjustment variables
[29] = Disease Free Survival, MEAN Q SCORE SUM OF PMK2 CYTOPLASM & NUCLEAR, Adenocarcinoma, With selected variables
[30] = Disease Free Survival, MEAN Q SCORE SUM OF PMK2 CYTOPLASM & NUCLEAR, Adenocarcinoma, Without variables
[31] = Disease Free Survival, MEAN Q SCORE SUM OF PMK2 CYTOPLASM & NUCLEAR, Squamous Cells, With adjustment variables
[32] = Disease Free Survival, MEAN Q SCORE SUM OF PMK2 CYTOPLASM & NUCLEAR, Squamous Cells, With selected variables
[33] = Disease Free Survival, MEAN Q SCORE SUM OF PMK2 CYTOPLASM & NUCLEAR, Squamous Cells, Without variables
[34] = ERCC1 model, ADENOCARCINOMA, With adjustment variables

For `N.N.[Cl][Pt][Cl]` [cisplatin], the “HazardRatio, ATM_Treatment” value [1] was 0.941, the “HazardRatio, Treatment” value [1] was 1.033 and the “HazardRatio, ATM_Treatment” value [2] was 0.993. For the same compound, the “HazardRatio, Treatment” value [2] was 1.004, the “HazardRatio, ATM_Treatment” value [3] was 0.972 and the “HazardRatio, Treatment” value [3] was 1.142. The “HazardRatio, ATM_Treatment” value [4] was 1.172, the “HazardRatio, Treatment” value [4] was 0.625 and the “HazardRatio, ATM_Treatment” value [5] was 1.172. For the same compound, the “HazardRatio, Treatment” value [5] was 0.640, the “HazardRatio, ATM_Treatment” value [6] was 1.148 and the “HazardRatio, Treatment” value [6] was 0.659. The “HazardRatio, BRCA1_Treatment” value [7] was 1.022, the “HazardRatio, Treatment” value [7] was 0.895 and the “HazardRatio, BRCA1_Treatment” value [8] was 1.027. For the same compound, the “HazardRatio, Treatment” value [8] was 0.954, the “HazardRatio, BRCA1_Treatment” value [9] was 0.844 and the “HazardRatio, Treatment” value [9] was 1.391. For the same compound, the “HazardRatio, BRCA1_Treatment” value [10] was 1.043, the “HazardRatio, Treatment” value [10] was 0.819 and the “HazardRatio, BRCA1_Treatment” value [11] was 1.048. For the same compound, the “HazardRatio, Treatment” value [11] was 0.831, the “HazardRatio, BRCA1_Treatment” value [12] was 1.028 and the “HazardRatio, Treatment” value [12] was 0.852. For the same compound, the “HazardRatio, PMK2MC_Treatment interaction (Disease Free Survival)” value [13] was 1.244, the “HazardRatio, Treatment (Disease Free Survival)” value [13] was 0.787 and the “HazardRatio, Treatment” value (Disease Free Survival, MEAN Q SCORE OF PMK2 CYTOPLASM DIVIDED BY NUCLEAR, Adenocarcinoma, With adjustment variables) was 0.790. The “HazardRatio, PMK2MCNp_Treatment” value [14] was 31E22, the “HazardRatio, Treatment” value [14] was 0.827 and the “HazardRatio, PMK2MCNp_Treatment” value [15] was 263.6. The “HazardRatio, Treatment” value [15] was 0.997, the “HazardRatio, Treatment” value (Disease Free Survival, MEAN Q SCORE OF PMK2 CYTOPLASM DIVIDED BY NUCLEAR, Squamous Cells, With adjustment variables) was 0.643 and the “HazardRatio, Treatment” value (Disease Free Survival, MEAN Q SCORE OF PMK2 CYTOPLASM DIVIDED BY NUCLEAR, Squamous Cells, With selected variables) was 0.681. For the same compound, the “HazardRatio, Treatment” value (Disease Free Survival, MEAN Q SCORE OF PMK2 CYTOPLASM DIVIDED BY NUCLEAR, Squamous Cells, Without variables) was 0.755, the “HazardRatio, PMK2MC_Treatment” value [16] was 1.163 and the “HazardRatio, Treatment” value [16] was 0.862. For the same compound, the “HazardRatio, PMK2MC_Treatment” value [17] was 1.096, the “HazardRatio, Treatment” value [17] was 0.874 and the “HazardRatio, PMK2MC_Treatment” value [18] was 0.647. The “HazardRatio, Treatment” value [18] was 1.173, the “HazardRatio, PMK2MC_Treatment” value [19] was 1.206 and the “HazardRatio, Treatment” value [19] was 0.804. The “HazardRatio, PMK2MC_Treatment” value [20] was 1.203, the “HazardRatio, Treatment” value [20] was 0.827 and the “HazardRatio, PMK2MC_Treatment” value [21] was 1.134. For the same compound, the “HazardRatio, Treatment” value [21] was 0.846, the “HazardRatio, PMK2MN_Treatment” value [22] was 1.094 and the “HazardRatio, Treatment” value [22] was 0.815. For the same compound, the “HazardRatio, PMK2MN_Treatment” value [23] was 1.087, the “HazardRatio, Treatment” value [23] was 0.816 and the “HazardRatio, PMK2MN_Treatment” value [24] was 0.911. The “HazardRatio, Treatment” value [24] was 1.145, the “HazardRatio, PMK2MN_Treatment” value [25] was 1.126 and the “HazardRatio, Treatment” value [25] was 0.758. The “HazardRatio, PMK2MN_Treatment” value [26] was 1.129, the “HazardRatio, Treatment” value [26] was 0.775 and the “HazardRatio, PMK2MN_Treatment” value [27] was 1.107. For the same compound, the “HazardRatio, Treatment” value [27] was 0.789, the “HazardRatio, PMK2MCNs_Treatment” value [28] was 1.064 and the “HazardRatio, Treatment” value [28] was 0.824. The “HazardRatio, PMK2MCNs_Treatment” value [29] was 1.056, the “HazardRatio, Treatment” value [29] was 0.829 and the “HazardRatio, PMK2MCNs_Treatment” value [30] was 0.915. For the same compound, the “HazardRatio, Treatment” value [30] was 1.174, the “HazardRatio, PMK2MCNs_Treatment” value [31] was 1.078 and the “HazardRatio, Treatment” value [31] was 0.772. For the same compound, the “HazardRatio, PMK2MCNs_Treatment” value [32] was 1.079, the “HazardRatio, Treatment” value [32] was 0.791 and the “HazardRatio, PMK2MCNs_Treatment” value [33] was 1.062. The “HazardRatio, Treatment” value [33] was 0.808, the “HazardRatio, ERCC1_Treatment” value [34] was 1.170 and the “HazardRatio, Treatment” value [34] was 0.689. For the same compound, the “HazardRatio, ERCC1_Treatment” value (ERCC1 model, ADENOCARCINOMA, With selected variables) was 1.151.
